Key:
[1] = In vivo pharmacokinetics, intravenous administration; parameters: species or system C57BL/6 mice; conditions: mice, 5 mg/kg per table footnote, 5 mg/kg; for t1/2 of DQ: DQ quantified in whole blood after iv dosing of the O-carbamate (RMB059 or RMB060); for CL of DQ / Vd of DQ: DQ quantified in whole blood after iv dosing of the O-carbamate
Procedure: Healthy C57BL/6 mice each weighing approximately 25 g were maintained at the University of Cape Town animal facility. Mice were housed in 27 × 21 × 28 cm cages (n = 3) under controlled environmental conditions at 22 ± 2°C, humidity of 55 ± 15% and a 12-hour light/dark cycle. Food and water were available ad libitum. Mice were acclimatised to the experimental environment for 4–5 days prior to initiating the experiments. […] The total volume of administration was 80 μL. Blood samples were collected post-dose in lithium heparin microvials via tail bleeding at predetermined intervals at 0.16, 0.5, 1, 3, 5, 8, 10, and 24 h. Samples were gently vortexed and stored at −80°C until analysis. A quantitative LC-MS/MS assay was used to determine whole-blood concentrations of RMB005, −059 and −060. Whole blood samples (20 μL) were treated with 100 μL ice cold acetonitrile containing the compound RMB073 used previously for determination of whole blood concentrations in analysis of TB-active compounds, as internal standard (200 ng/ml) ([Tanner et al., 2019]). The mixture was vortexed vigorously for 1 min, and 5 µL of the supernatant were injected onto the analytical column following centrifugation (5,590 g for 5 min). Gradient elution was carried out using a Gemini NX-C18 analytical column (5 μm, 2.1 mm × 50 mm). The aqueous mobile phase consisted of 5 mm ammonium acetate with 0.1% acetic acid in deionised water, while the organic phase consisted of 0.1% acetic acid in acetonitrile. A Shimadzu HPLC and reverse phase Gemini NX-C18 column coupled to an AB Sciex 3200 Q TRAP MS was operated at unit resolution in the multiple reaction monitoring (MRM) mode. […] The calibration standards ranged from 2 ng/mL to 3,000 ng/mL for RMB005, and 2 ng/mL to 4,000 ng/mL for RMB059, −060 and DQ. Drug concentration versus time plots for each compound were used to determine maximal drug concentration C max, time T max to reach C max, elimination half-life t 1/2 and the area under the concentration-time curve from time zero to infinity, AUC0-inf. From these values the following PK parameters—clearance CL, volume of distribution (Vd) and oral bioavailability (BA) were determined using the non-compartmental analysis Microsoft Excel Add-In PKSolver ([Zhang et al., 2010]).

[2] = In vivo pharmacokinetics, oral administration; parameters: species or system C57BL/6 mice; conditions: DQ quantified in whole blood after po 20 mg/kg of the O-carbamate, mice; for AUC0-∞ of DQ / Cmax: 20 mg/kg; for Cmax: read-out: Cmax of DQ
Procedure: Healthy C57BL/6 mice each weighing approximately 25 g were maintained at the University of Cape Town animal facility. Mice were housed in 27 × 21 × 28 cm cages (n = 3) under controlled environmental conditions at 22 ± 2°C, humidity of 55 ± 15% and a 12-hour light/dark cycle. Food and water were available ad libitum. Mice were acclimatised to the experimental environment for 4–5 days prior to initiating the experiments. RMB005, −059 and −060 were prepared in an aqueous solution of HPMC containing 0.2% Tween 80. The weighed compound was sonicated and vortexed to obtain a homogenous suspension. Oral dosing of 20 mg/kg was achieved via oral gavage. The total volume per administration was 200 μL. Blood samples were collected post-dose in lithium heparin microvials via tail bleeding at predetermined intervals at 0.5, 1, 3, 5, 8, 10, and 24 h. Samples were gently vortexed and stored at −80°C until analysis. A quantitative LC-MS/MS assay was used to determine whole-blood concentrations of RMB005, −059 and −060. Whole blood samples (20 μL) were treated with 100 μL ice cold acetonitrile containing the compound RMB073 used previously for determination of whole blood concentrations in analysis of TB-active compounds, as internal standard (200 ng/ml) ([Tanner et al., 2019]). The mixture was vortexed vigorously for 1 min, and 5 µL of the supernatant were injected onto the analytical column following centrifugation (5,590 g for 5 min). Gradient elution was carried out using a Gemini NX-C18 analytical column (5 μm, 2.1 mm × 50 mm). The aqueous mobile phase consisted of 5 mm ammonium acetate with 0.1% acetic acid in deionised water, while the organic phase consisted of 0.1% acetic acid in acetonitrile. A Shimadzu HPLC and reverse phase Gemini NX-C18 column coupled to an AB Sciex 3200 Q TRAP MS was operated at unit resolution in the multiple reaction monitoring (MRM) mode. […] The calibration standards ranged from 2 ng/mL to 3,000 ng/mL for RMB005, and 2 ng/mL to 4,000 ng/mL for RMB059, −060 and DQ. Drug concentration versus time plots for each compound were used to determine maximal drug concentration C max, time T max to reach C max, elimination half-life t 1/2 and the area under the concentration-time curve from time zero to infinity, AUC0-inf. From these values the following PK parameters—clearance CL, volume of distribution (Vd) and oral bioavailability (BA) were determined using the non-compartmental analysis Microsoft Excel Add-In PKSolver ([Zhang et al., 2010]).

## CCCCCCCCCCOc1cc2c(O)c(C(=O)OCC)cnc2cc1OCC [DQ from RMB059]
[1]
  t1/2 of DQ: 4.79 ± 1.66 h
  CL of DQ: 19.40 ± 3.14 mL/min/kg
  Vd of DQ: 8.00 ± 2.96 L/kg
[2]
  Tmax of DQ: 1.67 ± 0.67 h
  AUC0-∞ of DQ: 101 ± 44 µmol·min/L
  Cmax: 230 ± 50 nM

## CCCCCCCCCCOc1cc2c(O)c(C(=O)OCC)cnc2cc1OCC [DQ from RMB060]
[1]
  t1/2 of DQ: 4.66 ± 1.16 h
  CL of DQ: 21.50 ± 3.38 mL/min/kg
  Vd of DQ: 8.88 ± 2.87 L/kg
[2]
  Tmax of DQ: 1.67 ± 0.67 h
  AUC0-∞ of DQ: 63 ± 9 µmol·min/L
  Cmax: 110 ± 10 nM

From paper PMC9450014, “The evaluation of ADME and pharmacokinetic properties of decoquinate derivatives for the treatment of malaria” (Frontiers in Pharmacology, 2022)
